Assay results published in EP0332216A1 (priority 1988, dated 1989).

Key:
[1] = Acute toxicity in mice (intraperitoneal); conditions: mouse, in vivo, ip; JCL/ICR male mice, 5 weeks; administration into the peritoneal cavity; mortality after two weeks; read-out: LD₅₀
[2] = test system: bacteria; test: Anti-microbial activity in vitro (bacteria); format: cell-based; conditions: concentration of 500 µg/mℓ
[3] = test system: yeast; test: Anti-microbial activity in vitro (yeast); format: cell-based; conditions: concentration of 500 µg/mℓ
[4] = test system: filamentous fungi; test: Anti-microbial activity in vitro (filamentous fungi); format: cell-based; conditions: concentration of 500 µg/mℓ
[5] = Solubility to solvent; format: physicochemical

**Q.** What does the source list for `CC1=C(C(=O)O)COC1=O` [F-0368]?
**A.** LD50 at 336 h [1]: ~200 mg/kg; anti-microbial activity in vitro [2]: did not indicate its anti-microbial activity; anti-microbial activity in vitro [3]: did not indicate its anti-microbial activity; anti-microbial activity in vitro [4]: did not indicate its anti-microbial activity; Solubility to Solvent ([5]; acetone): Readily soluble; Solubility to Solvent ([5]; benzene): Non-soluble; Solubility to Solvent ([5]; chloroform): Non-soluble; Solubility to Solvent ([5]; ethanol): Readily soluble; Solubility to Solvent ([5]; ethyl acetate): Soluble; Solubility to Solvent ([5]; hexane): Non-soluble; Solubility to Solvent ([5]; methanol): Readily soluble; Solubility to Solvent ([5]; water): Soluble
